From patent US9168243B2, “Pharmaceutical compositions comprising 8-substituted dibenzylbutyrolactone lignans” (priority 2010, dated 2015)
“Also recorded” adds a separate entry of the source.

Tests used:
[1] = tested on: phospho-Akt(ser473); conditions: reported earlier; cited from earlier work
[2] = tested on: LNCaP prostate cancer cells; assay: Flow cytometric screen for sensitization to TRAIL-induced apoptosis (nuclear fragmentation by propidium iodide, mitochondrial depolarization by TMRM); assay type: cell-based; conditions: for capacity to sensitize LNCaP prostate cancer cells to TRAIL-induced apoptosis: androgen-deprived, 40 μM lignan 1 hour before 10 ng/ml izTRAIL, 20 hours
Experimental: (§1) Flow cytometric analysis of apoptosis with HTS platform was performed on cells that were plated on a 96-well plate as triplicate samples. After 24 hours in androgen-deprived conditions, the cells were pretreated with 40 μM lignans or lignan derivatives for 1 hour prior to addition of 10 ng/ml izTRAIL. Twenty hours later the plate was centrifuged with a culture plate rotor (1000 rpm, 3 minutes). For analysis of nuclear fragmentation, propidium iodide (PI) buffer (40 mM Na-citrate, 0.3% Triton X-100, 50 μg/ml PI; Sigma) was added to the wells. After 10 minutes incubation at room temperature, the plate was analyzed with LSRII flow cytometer equipped with HTS platform (PE-A channel). The fraction of sub-G0/G1 events (nuclear fragmentation) was gated as a measure of apoptotic cell death. For detection of mitochondrial depolarization, the cells were detached by trypsinization of the cells and incubated in 20 nM tetramethylrhodamine (TMRM; Invitrogen) in warm culture medium for 10 minutes before analysis. The plate was analyzed with LSRII flow cytometer equipped with HTS platform (FSC, PE-A channel). The cells with decreased TMRM incorporation were considered to have undergone mitochondrial membrane depolarization. Activated caspase-3 in cells was labeled with phycerythrin (PE)-conjugated antibody according to manufacturer's protocol (BD Pharmingen) and analyzed by FacsCalibur flow cytometer (FL-2, FSC).
LNCaP cells were cultured in the absence of 1 nM androgen and incubated with lignan compounds (40 μM) for 1 hour before izTRAIL treatment (10 ng/ml) or control for 20 hours. The samples were screened for nuclear fragmentation by propidium iodide labeling (FIG. 1A) or mitochondrial depolarization by TMRM labeling (FIG. 1B). The plates were analyzed with LSRII flow cytometer equipped with HTS platform (FSC, PE-A channels). The fraction of sub-G0/G1 events (nuclear fragmentation; PE-A channel) was gated as a measure of apoptotic cell death (FIG. 1A) and the cells with decreased TMRM incorporation (PE-A channel) were considered to have undergone mitochondrial membrane depolarization (FIG. 1B). Representative histograms and dot blots for control, TRAIL, nortrachelogenin (NTG) and NTG+TRAIL treatments are viewed.
Importantly, substitution with methyl group at position 8 further increases activity of dibenzylbutyrolactone lignans in sensitization of LNCaP prostate cancer cells to TRAIL-mediated apoptosis (FIG. 8). LNCaP cells were cultured in the absence of 1 nM androgen and incubated with indicated lignan compounds (40 μM) for 1 hour before izTRAIL treatment (10 ng/ml) or control for 20 hours. The cells were disrupted and the nuclei labeled for DNA content with propidium iodide. The samples were analyzed by flow cytometry and the fraction of sub-G0/G1 events (nuclear fragmentation) was detected as a measure of apoptotic cell death (mean±SEM; n=4). (FIG. 8A). Alternatively, LNCaP cells (+/−1 nM androgen) were incubated with 0-100 μM 8-Me-MAT for 1 hour after which total cell lysates were prepared and the samples were analyzed by Western blotting for Akt and phospho-Akt(ser473) expression.

[3] = in vivo; cited from earlier work
[4] = tested on: phospho-Akt(ser473); assay: Western blot of Akt / phospho-Akt(ser473); assay type: cell-based; conditions: LNCaP +/- 1 nM androgen; 0-100 μM lignan, 1 hour (NTG also 100 μM, 0-8 hours)
Experimental: Whole cell lysates were prepared by lysing floating and attached cells in Laemmli sample buffer and boiling the samples for 10 minutes. Proteins were separated by SDS-PAGE and transferred on PVDF membrane (Millipore). Western blotting was performed using antibodies against Akt, phospho-Akt (Ser473), GSK-3β, phospho-GSK-3β (Ser9) and phospho-EGF receptor Tyr(1068) (Cell Signalling Technology), Actin (clone AC-40; Sigma-Aldrich), PI3K p85α (clone 4/PI3-Kinase; BD Pharmingen), EGF receptor, Insulin receptor β and IGF-I receptor β (Santa Cruz Biotechnology), and Phospho-tyrosine (clone 4G10; Millipore). HRP-conjugated secondary antibodies were from Southern Biotechnology Associates, Promega, and Amersham Biosciences. The results were visualized using the ECL method (Amersham Biosciences) on x-ray film. The presented Western blot results are representative of at least three independent experiments. Densitometric analysis of Western blots was done using scanned films with the MCID M5+ software. The values were normalized to the untreated control sample, which was given the value 1. The histograms in FIG. 4 present a relative decrease in ratio of phosphorylated vs. non-phosphorylated protein compared to control cells.
LNCaP cells (+/−1 nM androgen) were treated with 0-100 μM enterolactone (ENL), matairesinol (MAT) or NTG for 1 hour prior to preparation of total cell lysates (FIG. 4A). The relative decrease in pAkt/Akt ratio was quantified from western blot analysis with Akt (60 kDa) and phospho-Akt(ser473) (Mean±SEM; n=4; Student's t-test *p<0.05, **p<0.01). Alternatively, androgen-deprived LNCaP cells were incubated with 100 μM NTG for 2 hours, fixed and labeled with Akt antibody followed by Alexa 546-conjugated secondary antibody. The samples were viewed at LSM 510 confocal microscope (63× oil objective, 543 nm excitation) (FIG. 4B). To examine the time-dependence of the observed inhibitory effect, LNCaP cells (+/−1 nM androgen) were incubated with 100 μM NTG for 0-8 hours after which total cell lysates were prepared. The western blot analysis with Akt, phospho-Akt(ser473), GSK-3β and phospho-GSK-3β(ser9) was quantified. The histogram presents a relative decrease in pAkt/Akt ratio (FIG. 4C.) or pGSK-3β/GSK-3β ratio (FIG. 4D.) compared to control cells (Mean±SEM; n=3). […]
Importantly, substitution with methyl group at position 8 further increases activity of dibenzylbutyrolactone lignans in sensitization of LNCaP prostate cancer cells to TRAIL-mediated apoptosis (FIG. 8). […] The samples were analyzed by flow cytometry and the fraction of sub-G0/G1 events (nuclear fragmentation) was detected as a measure of apoptotic cell death (mean±SEM; n=4). […]

[5] = tested on: LNCaP cells; assay: Caspase-3 activation by flow cytometry, TRAIL with or without NTG; assay type: cell-based; conditions: TRAIL alone, 20 h
Experimental: as §1
As NTG was identified as the most efficient TRAIL-sensitizing lignan, we analyzed the ability of NTG to affect the efficacy of different TRAIL concentrations in triggering of caspase-3 activation (FIG. 2A). The TRAIL resistant LNCaP cells were cultured in androgen-supplied and androgen-deprived conditions to simulate the effects of androgen-deprivation therapy, and treated for 20 h with TRAIL alone or with the combination of 40 μM NTG and TRAIL. The percentage of cells with activated caspase-3 increased from maximum of 15% to 60% for androgen-deprived, and from 13% to 30% for androgen-supplied cells (Mean±SEM; n≧3) (FIG. 2A).

[6] = tested on: LNCaP cells; assay: Clonogenic assay; assay type: cell-based; conditions: 11 days; 10 ng/ml TRAIL or 40 μM NTG alone
Experimental: Five hundred LNCaP cells were plated in 1 ml of culture medium and let to adhere prior to addition of the indicated treatments. After 11 days of incubation, cell colonies were fixed with glutaraldehyde (6.0% v/v), stained with crystal violet (0.5% w/v) and imaged using a digital camera.
To investigate the effects of NTG alone and in combination with TRAIL on colony formation ability, the LNCaP cells were plated in low confluency and treated for 11 days.

COc1cc(C[C@H]2COC(=O)[C@@H]2Cc2ccc(O)c(OC)c2)ccc1O [MAT, Matairesinol, reference compound]
Akt phosphorylation in prostate cancer cells [1]: can reportedly inhibit Akt phosphorylation
increase of the apoptotic response compared to TRAIL alone (factor) ([2]; lignan in combination with TRAIL): 2.5
conversion into the mammalian lignans [3]: converted to ENL in the digestive tract

COc1cc(CC2COC(=O)C2(C)Cc2ccc(O)c(OC)c2)ccc1O (stereo not shown) [8-Me-MAT, 8-Methylmatairesinol]
capacity to sensitize LNCaP prostate cancer cells to TRAIL-induced apoptosis [2]: increased capacity to sensitize LNCaP prostate cancer cells to TRAIL-mediated apoptosis
Akt phosphorylation (pAkt/Akt ratio) [4]: strongly inhibitory effect on Akt phosphorylation; also recorded: inhibit Akt phosphorylation yet more efficiently than ENL or MAT

TRAIL
percentage of cells with activated caspase-3 (maximum) ([5]; androgen-deprived LNCaP): 15%
percentage of cells with activated caspase-3 (maximum) ([5]; androgen-supplied LNCaP): 13%
colony formation ability, single agent [6]: not able to inhibit LNCaP growth

O=C1OC[C@H](Cc2cccc(O)c2)[C@H]1Cc1cccc(O)c1 [ENL, Enterolactone]
Akt phosphorylation in prostate cancer cells [1]: can reportedly inhibit Akt phosphorylation

COc1ccc(CC2COC(=O)C2(C)Cc2ccc(OC)c(OC)c2)cc1OC (stereo not shown) [8-Me-dimethylmatairesinol, 8-Methyldimethylmatairesinol]
capacity to sensitize LNCaP prostate cancer cells to TRAIL-induced apoptosis [2]: clearly enhances the activity
